Results: patent US10703746B2, “Mutant IDH1 inhibitors useful for treating cancer” (THE UNITED STATES OF AMERICA, AS REPRESENTED BY THE …, priority 2014, dated 2020)
pIC50: −log10 of the molar value.

Columns and labels:
[1] = biological target: IDH1 R132C (Homo sapiens, UniProt O75874, R132C); assay: IDH1 R132C enzymatic assay (NADPH depletion coupled to diaphorase/resazurin); assay type: biochemical
Summary of the method: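 NADPH depletion, read via diaphorase/resazurin coupling, after adding substrate at 0.6 mM α-KG and 0.012 mM NADPH. Beforehand, 0.00032 mg/mL enzyme sat with compound 30 min at room temperature in pH 6.5 potassium phosphate buffer with MgCl2, glycerol and BSA.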

[2] = biological target: IDH1 R132H (Homo sapiens, UniProt O75874, R132H); assay: IDH1 R132H enzymatic assay (NADPH depletion coupled to diaphorase/resazurin); assay type: biochemical
[3] = IDH1 R132C enzymatic inhibition, IC50 class
[4] = IDH1 R132H enzymatic inhibition, IC50 class
[5] = enzymatic inhibition, IDH1 R132C
[6] = enzymatic inhibition, IDH1 R132H

Sequence of IDH1 R132C (O75874 whole entry R132C): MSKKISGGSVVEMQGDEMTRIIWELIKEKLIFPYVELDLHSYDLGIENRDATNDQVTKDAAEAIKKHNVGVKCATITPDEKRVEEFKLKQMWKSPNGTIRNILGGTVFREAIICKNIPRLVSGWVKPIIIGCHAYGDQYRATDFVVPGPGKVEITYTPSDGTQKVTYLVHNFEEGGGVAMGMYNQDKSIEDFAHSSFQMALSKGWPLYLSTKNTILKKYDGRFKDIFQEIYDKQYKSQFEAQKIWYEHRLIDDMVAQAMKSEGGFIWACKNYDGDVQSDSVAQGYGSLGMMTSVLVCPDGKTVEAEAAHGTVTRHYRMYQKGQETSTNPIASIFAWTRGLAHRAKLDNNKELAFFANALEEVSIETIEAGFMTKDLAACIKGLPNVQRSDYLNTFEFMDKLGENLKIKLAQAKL
Sequence of IDH1 R132H (O75874 whole entry R132H): as the sequence (O75874 whole entry R132C) above, with C132H counted along it

| SMILES | pIC50 [1, 3] | pIC50 [2, 4] | pIC50 [1, 5] | pIC50 [2, 6] |
| --- | --- | --- | --- | --- |
| CC1(C)CC(=O)c2cc(-c3nc(-c4ccc(Cl)cc4)cs3)c(=O)n(-c3sccc3C(N)=O)c2C1 [Compound 369] | 4.70 to 5.30 | 4.70 to 5.30 | – | – |
| CCc1cccc(CC)c1-n1c(CC(C)C)c(C(=O)N2CCNCC2)cc(-c2nc(-c3ccc(Cl)cc3)c(C)s2)c1=O [Compound 82] | > 6.52 | > 6.52 | – | – |
| CCc1cccc(CC)c1-n1c(CC(C)C)c(C(=O)N[C@@H]2CCC[C@@H]2O)cc(-c2nc(-c3ccc(Cl)cc3)cs2)c1=O [Compound 187] | 6.00 to 6.52 | 6.00 to 6.52 | – | – |
| CCc1cccc(Cl)c1-n1c(C=C(C)C)c(C(=O)N2CCNCC2)cc(-c2nc(-c3ccc(Cl)cc3)cs2)c1=O [Compound 448] | – | – | > 6.52 | > 6.52 |
| CCc1cccc(CC)c1-n1c(CC(C)C)c(C(=O)N2CCNCC2)cc(-c2nc(-c3ccc(Cl)cc3)co2)c1=O [Compound 340] | 6.00 to 6.52 | 6.00 to 6.52 | – | – |
| CCc1cccc(CC)c1-n1c(C=C(C)C)c(C(=O)N2CCNC(=O)C2CC(=O)O)cc(-c2nc(-c3ccc(Cl)cc3)cs2)c1=O (stereo not drawn) [Compound 337] | > 6.52 | > 6.52 | – | – |
| CCc1cccc(CC)c1-n1c(C)c(C(=O)NC2CCCCC2)cc(-c2nc(-c3ccc(Cl)cc3)cs2)c1=O [Compound 116] | 5.30 to 6.00 | < 4.70 | – | – |
| CCc1cccc(CC)c1-n1c(CCC(F)(F)F)c(C(=O)N2CCNCC2)cc(-c2nc(-c3ccc(Cl)cc3)cs2)c1=O [Compound 373] | 6.00 to 6.52 | 6.00 to 6.52 | – | – |
| CC1(C)CC(=O)c2cc(-c3nc(-c4ccc(Cl)cc4)cs3)c(=O)n(-c3ccccc3C(C)(C)C)c2C1 [Compound 241] | 6.00 to 6.52 | 5.30 to 6.00 | – | – |
| CC1(C)CC(=O)c2cc(-c3nc(-c4ccc(Cl)cc4)cs3)c(=O)n(-c3ccccc3OCc3ccccc3)c2C1 [Compound 1] | 6.00 to 6.52 | < 4.70 | – | – |
| CCc1cccc(CC)c1-n1c(C=C(C)C)c(C(=O)N2CCNC(C)C2)cc(-c2nc(-c3ccc(Cl)cc3)cs2)c1=O (stereo not drawn) [Compound 370] | > 6.52 | > 6.52 | – | – |
| CCc1cccc(CC)c1-n1c(CC(C)C)c(C(=O)N2CC(O)C2)cc(-c2nc(-c3ccc(Cl)cc3)cs2)c1=O [Compound 63] | 6.00 to 6.52 | 5.30 to 6.00 | – | – |
| CCc1cccc(CC)c1-n1c(CC(C)C)c(C(=O)N2CCNCC2)cc(-c2nc(-c3ccc(Cl)cc3)c(C(=O)NC)s2)c1=O [Compound 454] | – | – | 5.30 to 6.00 | 6.00 to 6.52 |
| CCc1cccc(CC)c1-n1c(C)c(C(=O)N2CCC(N)C2)cc(-c2nc(-c3ccc(Cl)cc3)cs2)c1=O (stereo not drawn) [Compound 245] | 5.30 to 6.00 | 5.30 to 6.00 | – | – |
| CCc1cccc(CC)c1-n1c2c(cc(-c3nc(-c4cccc(Cl)c4)cs3)c1=O)C(=O)CC(C)(C)C2 [Compound 205] | 5.30 to 6.00 | < 4.70 | – | – |
| CCc1cccc(CC)c1-n1c2c(cc(-c3nc(-c4ccc(Cl)cc4)cs3)c1=O)C(=O)CC(C)(C)C2 [Compound 282] | > 6.52 | 6.00 to 6.52 | – | – |
| CC1(C)CC(=O)c2cc(-c3nc(-c4ccc(Cl)cc4)cs3)c(=O)n(-c3ccccc3O)c2C1 [Compound 199] | 4.70 to 5.30 | 4.70 to 5.30 | – | – |
| CCc1cccc(CC)c1-n1c2c(cc(-c3nc(-c4ccc(C(=O)O)cc4)cs3)c1=O)C(=O)CC(C)(C)C2 [Compound 162] | 4.70 to 5.30 | < 4.70 | – | – |
| CCc1cccc(CC)c1-n1c(CC(C)C)c(C(=O)O)cc(-c2nc(-c3ccc(Cl)cc3)cs2)c1=O [Compound 14] | 4.70 to 5.30 | 5.30 to 6.00 | – | – |

| SMILES | pIC50 [1, 3] | pIC50 [2, 4] | pIC50 [1, 5] | pIC50 [2, 6] |
| --- | --- | --- | --- | --- |
| COc1ccc(OC)c(-n2c3c(cc(-c4nc5ccc(Cl)cc5s4)c2=O)C(=O)CC(C)(C)C3)c1 [Compound 149] | 5.30 to 6.00 | < 4.70 | – | – |
| CCc1ncc(OC)cc1-n1c(C=C(C)C)c(C(=O)N2CCNCC2)cc(-c2nc(-c3ccc(C(F)F)cn3)cs2)c1=O [Compound 466] | – | – | 4.70 to 5.30 | 5.30 to 6.00 |
| CCc1cccc(CC)c1-n1c(C)c(C(=O)NC(C)(C)C)cc(-c2nc(-c3ccc(Cl)cc3)cs2)c1=O [Compound 123] | 5.30 to 6.00 | 4.70 to 5.30 | – | – |
| CCc1cccc(CC)c1-n1c2c(cc(-c3nc(-c4ccc(C)cn4)c(C)s3)c1=O)C(=O)CC(C)(C)C2 [Compound 292] | 5.30 to 6.00 | 5.30 to 6.00 | – | – |
| CCc1cccc(CC)c1-n1c(CC(C)C)c(C(=O)N2CCN[C@@H](C(=O)OC)C2)cc(-c2nc(-c3ccc(Cl)cc3)cs2)c1=O [Compound 131] | > 6.52 | 5.30 to 6.00 | – | – |
| CCOc1ncccc1-n1c(C=C(C)C)c(C(=O)N2CCNCC2)cc(-c2nc(-c3ccc(Cl)cc3)cs2)c1=O [Compound 331] | 6.00 to 6.52 | > 6.52 | – | – |
| CCc1cccc(CC)c1-n1c(CC(C)C)c(C(=O)N2CCNC3(CCC3)C2)cc(-c2nc(-c3ccc(Cl)cc3)cs2)c1=O [Compound 465] | – | – | > 6.52 | > 6.52 |
| CCc1cccc(CC)c1-n1c(CC(C)C)c(C(=O)N[C@H](CO)c2ccccc2)cc(-c2nc(-c3ccc(Cl)cc3)cs2)c1=O [Compound 10] | > 6.52 | 6.00 to 6.52 | – | – |
| Cc1ccccc1Oc1nc(C)c(C(=O)N2CCNCC2)cc1-c1nc(-c2ccc(Cl)cc2)cs1 [Compound 462] | – | – | 4.70 to 5.30 | 4.70 to 5.30 |
| CCc1cccc(CC)c1-n1c(CC(C)C)c(C(=O)N2CC(C(=O)O)NCC2C)cc(-c2nc(-c3ccc(Cl)cc3)cs2)c1=O (stereo not drawn) [Compound 206] | > 6.52 | 6.00 to 6.52 | – | – |
| CCOc1ncc(Cl)cc1-n1c(C=C(C)C)c(C(=O)N2CCNCC2)cc(-c2nc(-c3ccc(C(F)F)cn3)cs2)c1=O [Compound 469] | – | – | 5.30 to 6.00 | 6.00 to 6.52 |
| Cc1nonc1-n1c2c(cc(-c3nc(-c4ccc(Cl)cc4)cs3)c1=O)C(=O)CC(C)(C)C2 [Compound 439] | – | – | 5.30 to 6.00 | < 4.70 |
| CCc1cccc(CC)c1-n1c(C)c(C(=O)N2CCC(C(=O)O)C2)cc(-c2nc(-c3ccc(Cl)cc3)cs2)c1=O (stereo not drawn) [Compound 36] | < 4.70 | < 4.70 | – | – |
| CCc1cccc(CC)c1-n1c2c(cc(-c3nc(-c4ccc(Cl)cc4)c(C)s3)c1=O)C(=O)CC(C)(C)C2 [Compound 251] | > 6.52 | 6.00 to 6.52 | – | – |
| CC1(C)CC(=O)c2cc(-c3nc(-c4ccc(Cl)cc4)cs3)c(=O)n(-c3ccccc3CN)c2C1 [Compound 5] | 4.70 to 5.30 | 4.70 to 5.30 | – | – |
| Cc1cccc(CN2CCN(C)CC2)c1-n1c2c(cc(-c3nc(-c4ccc(Cl)cc4)cs3)c1=O)C(=O)CCC2 [Compound 468] | – | – | 4.70 to 5.30 | 4.70 to 5.30 |
| CCc1cccc(CC)c1-n1c(C(C)C)c(C(=O)NCCO)cc(-c2nc(-c3ccc(Cl)cc3)cs2)c1=O [Compound 218] | 6.00 to 6.52 | > 6.52 | – | – |
| COc1ccc(OC)c(-n2c3c(cc(-c4nc5cc(Cl)ccc5s4)c2=O)C(=O)CC(C)(C)C3)c1 [Compound 175] | 6.00 to 6.52 | > 6.52 | – | – |

Results, then the compound that gave them:

| pIC50 [1, 3] | pIC50 [2, 4] | pIC50 [1, 5] | pIC50 [2, 6] | SMILES |
| --- | --- | --- | --- | --- |
| > 6.52 | > 6.52 | – | – | CCc1cccc(CC)c1-n1c(C=C(C)C)c(C(=O)N2CCCC(N)C2)cc(-c2nc(-c3ccc(Cl)cc3)cs2)c1=O (stereo not drawn) [Compound 629] |
| 5.30 to 6.00 | 5.30 to 6.00 | – | – | CCc1ncc(F)cc1-n1c(C=C(C)C)c(C(=O)N2CCNCC2)cc(-c2nc(-c3ccc(C(F)F)cn3)cs2)c1=O [Compound 619] |
| > 6.52 | > 6.52 | – | – | CCc1cccc(CC)c1-n1c(C=C(C)C)c(C(=O)N2CCCNC(=O)C2)cc(-c2ccn(-c3ccc(Cl)cc3)n2)c1=O [Compound 635] |
| > 6.52 | > 6.52 | – | – | CCc1cccc(CC)c1-n1c(C=C(C)C)c(C(=O)N2CCNC(C)C2C)cc(-c2nc(-c3ccc(Cl)cc3)cs2)c1=O (stereo not drawn) [Compound 646] |
| – | – | 6.00 to 6.52 | 6.00 to 6.52 | CCOc1cccc(OCC)c1-n1c2c(cc(-c3nc(-c4ccc(Cl)cc4)cs3)c1=O)C(=O)CC(C)(C)C2 [Compound 609] |
| < 4.70 | 4.70 to 5.30 | – | – | CCc1cccc(CC)c1-n1c(C2CCNCC2)c(C(=O)N2CCNCC2)cc(-c2nc(-c3ccc(Cl)cc3)cs2)c1=O [Compound 670] |
| – | – | 5.30 to 6.00 | 5.30 to 6.00 | Cc1conc1-n1c2c(cc(-c3nc(-c4ccc(Cl)cc4)cs3)c1=O)C(=O)CC(C)(C)C2 [Compound 472] |
| > 6.52 | > 6.52 | – | – | CCc1cccc(CC)c1-n1c(CC(C)C)c(C(=O)N2CCNCC2)cc(-c2ccn(-c3ccc(C(F)(F)F)cc3)n2)c1=O [Compound 640] |
| 5.30 to 6.00 | 5.30 to 6.00 | – | – | CN1CCN(c2ccc(C(F)(F)F)c(-n3c4c(cc(-c5nc(-c6ccc(Cl)cc6)cs5)c3=O)C(=O)CC(C)(C)C4)c2)CC1 [Compound 645] |
| – | – | 6.00 to 6.52 | > 6.52 | CC(C)=Cc1c(C(=O)N2CCNCC2)cc(-c2nc(-c3ccc(Cl)cc3)cs2)c(=O)n1-c1cc(F)ccc1OC(C)C [Compound 530] |
| – | – | > 6.52 | > 6.52 | C#Cc1ccccc1-n1c(C=C(C)C)c(C(=O)N2CCNCC2)cc(-c2nc(-c3ccc(Cl)cc3)cs2)c1=O [Compound 558] |
| – | – | 6.00 to 6.52 | 6.00 to 6.52 | CCc1cccc(CC)c1-n1c(CC(C)C)c(C(=O)N2CCNCC2)cc(-c2nc(-c3ccc(Cl)cc3OC)c(C)s2)c1=O [Compound 573] |
| – | – | 5.30 to 6.00 | 5.30 to 6.00 | COc1ccccc1-n1c2c(cc(-c3nc(-c4ccc(Cl)cc4)cs3)c1=O)C(=O)CCC2 [Compound 503] |
| – | – | 5.30 to 6.00 | 6.00 to 6.52 | CCc1cccc(CC)c1-n1c(C)c(C(=O)N2CCNCC2)c(O)c(-c2nc(-c3ccc(Cl)cc3)cs2)c1=O [Compound 535] |
| – | – | > 6.52 | > 6.52 | CCOc1ccc(-c2csc(-c3cc(C(=O)N4CCNCC4)c(C=C(C)C)n(-c4c(CC)cccc4CC)c3=O)n2)cc1 [Compound 598] |
| – | – | 6.00 to 6.52 | > 6.52 | CCOc1ccc(F)cc1-n1c(C=C(C)C)c(C(=O)N2CCNCC2)cc(-c2nc(-c3ccc(C(F)(F)F)nc3)cs2)c1=O [Compound 477] |
| > 6.52 | 6.00 to 6.52 | – | – | CCCC1CNCCN1C(=O)c1cc(-c2nc(-c3ccc(Cl)cc3)cs2)c(=O)n(-c2c(CC)cccc2CC)c1C=C(C)C (stereo not drawn) [Compound 648] |
